In PubChem BioAssay (NCI) one finds TGI and GI50 data, which are given here for 12 compounds.

Structures are written as SMILES. “And” between values parts separate entries of the source, which are not always exact repeats. Equal entries are not always repeated.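 How tested: cells in 96-well plates exposed to compound for 48 hours at five concentrations. GI50 marks 50% less growth. TGI denotes the concentration required for complete inhibition of growth.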

Test systems include DU-145 prostate; HCT-15 colon; K-562 leukemia; MCF7 breast; NCI/ADR-RES ovarian; RPMI-8226 leukemia; SF-295 CNS; SK-MEL-5 melanoma; SNB-75 CNS; UACC-62 melanoma.
Common to all, as to test: NCI anticancer screen, dose series, 48 h

On to `O=C(/C=C/c1ccc(Cl)c(Cl)c1)CCN1CCN(CCC(=O)/C=C/c2ccc(Cl)c(Cl)c2)CC1`, for which the TGI was 54.4 µM with DU-145 prostate; 34.1 µM in the assay with HCT-15 colon; over 100 µM in the assay with K-562 leukemia; 19.4 µM in the assay with MCF7 breast; over 100 µM in the assay on NCI/ADR-RES ovarian; over 100 µM in the assay with RPMI-8226 leukemia. The TGI in the assay with SF-295 CNS is 46.5 µM; with SK-MEL-5 melanoma, 38.2 µM; in the assay on SNB-75 CNS, over 100 µM; in the assay with UACC-62 melanoma, 45.3 µM.

Consider `O=[N+]([O-])C(=C/C1CCCCC1)/C(=C\C1CCCCC1)[N+](=O)[O-]`, for which the TGI with DU-145 prostate is 26.7 µM; in the assay with HCT-15 colon, 3.76 µM; in the assay on K-562 leukemia, over 82 µM; in the assay on MCF7 breast, 26.4 µM; with NCI/ADR-RES ovarian, 7.29 µM; with RPMI-8226 leukemia, 5.4 µM. The TGI in the assay on SF-295 CNS is 32.8 µM; with SK-MEL-5 melanoma it was 23.1 µM; with SNB-75 CNS, 31.3 µM; in the assay on UACC-62 melanoma it was 17.6 µM.

As to `O=C(c1ccc(Cl)cc1)N(C(=S)N1CCN(c2ccccc2)CC1)c1ccccc1`, the TGI in the assay on HCT-15 colon, in the assay on K-562 leukemia, with RPMI-8226 leukemia, with SF-295 CNS, with SK-MEL-5 melanoma and with SNB-75 CNS was over 100 µM in each case. This compound showed a TGI with UACC-62 melanoma of over 100 µM.

Turning to `CCCC(=O)N[C@@H](Cc1cc(I)c(O)c(I)c1)C(=O)NCCCNCCCCNCCCNC(=O)[C@@H](N)CCCN=C(N)N`, the TGI in the assay on HCT-15 colon, with K-562 leukemia, in the assay with RPMI-8226 leukemia, in the assay on SK-MEL-5 melanoma and in the assay on UACC-62 melanoma was over 100 µM in each case.

`CC1CSc2nc3[nH]c(=S)[nH]c3c(=O)n2C1` (stereo not drawn): the TGI in the assay with DU-145 prostate, with HCT-15 colon, in the assay on K-562 leukemia, in the assay with MCF7 breast, in the assay with NCI/ADR-RES ovarian and in the assay with RPMI-8226 leukemia was over 100 µM throughout. For the same compound, the TGI in the assay on SF-295 CNS, in the assay on SK-MEL-5 melanoma, with SNB-75 CNS and in the assay on UACC-62 melanoma was over 100 µM throughout.

As for `CCCN(CCC)C(=O)Cc1c2n(c3ccccc13)Cc1ccccc1-2`, the TGI with HCT-15 colon, in the assay with K-562 leukemia, in the assay on RPMI-8226 leukemia, in the assay on SF-295 CNS, in the assay with SK-MEL-5 melanoma and in the assay with SNB-75 CNS was over 100 µM each time. The compound further gave a TGI with UACC-62 melanoma of over 100 µM.

As to `CCOC(=O)c1ccc(Nc2nc3ccc(C(F)(F)F)cc3nc2-c2ccccc2)cc1`, the TGI in the assay on DU-145 prostate, in the assay with HCT-15 colon, in the assay on K-562 leukemia, in the assay on MCF7 breast, with NCI/ADR-RES ovarian and in the assay on RPMI-8226 leukemia was over 100 µM throughout. Besides, the TGI is over 100 µM in the assay with SF-295 CNS, over 100 µM in the assay on SK-MEL-5 melanoma, over 100 µM in the assay on SNB-75 CNS and 74.5 µM in the assay with UACC-62 melanoma.

On to `C[C@@H]1CCN(C(=O)CC#N)C[C@@H]1N(C)c1ncnc2[nH]ccc12`, for which the GI50 in the assay on DU-145 prostate, with HCT-15 colon, in the assay with MCF7 breast, in the assay on NCI/ADR-RES ovarian, in the assay with SF-295 CNS and in the assay with SK-MEL-5 melanoma was over 100 µM in each case. The GI50 with SNB-75 CNS is 12.9 µM. Moreover, the TGI with DU-145 prostate, with HCT-15 colon, in the assay on MCF7 breast, in the assay with NCI/ADR-RES ovarian, in the assay on SF-295 CNS and in the assay on SK-MEL-5 melanoma was over 100 µM in each case. In addition, in the assay on SNB-75 CNS, the TGI worked out at 84.5 µM.

On to `O=[N+]([O-])c1cccc2nc3ccccc3c(NCCNCCO)c12`, for which the TGI in the assay on HCT-15 colon is over 100 µM; in the assay on K-562 leukemia it was 0.0448 µM; in the assay with MCF7 breast, 0.0373 µM and 0.0177 µM; in the assay on NCI/ADR-RES ovarian, 2.15 µM and 14.9 µM; in the assay on RPMI-8226 leukemia it was 0.0602 µM and 0.0646 µM; in the assay on SF-295 CNS, 0.0367 µM and 0.133 µM. Moreover, the TGI with SK-MEL-5 melanoma was 0.00391 µM; with SNB-75 CNS, 0.0565 µM and 0.0397 µM; with UACC-62 melanoma, 0.0315 µM and 0.0174 µM. The values for the GI50 in the assay on NCI/ADR-RES ovarian and in the assay on SNB-75 CNS were 0.911 µM and 0.0132 µM, respectively.

As for `Cc1ccc(S(=O)(=O)OCC23CCC(C4CC42)C2CC23)cc1` (stereo not drawn), the TGI with HCT-15 colon, with K-562 leukemia, in the assay with RPMI-8226 leukemia, in the assay with SF-295 CNS, in the assay on SK-MEL-5 melanoma and with UACC-62 melanoma was over 100 µM throughout.

In the case of `N#C[C@](CO)(NC(=O)OCc1ccccc1)C(F)F`, the TGI with DU-145 prostate, with HCT-15 colon, in the assay with K-562 leukemia, in the assay on NCI/ADR-RES ovarian, in the assay with RPMI-8226 leukemia and with SF-295 CNS was over 100 µM in each case. In addition, the TGI with SK-MEL-5 melanoma, in the assay with SNB-75 CNS and in the assay on UACC-62 melanoma was over 100 µM throughout.

On to `O=S(=O)(NC(c1ccccc1)(c1cc2ccccc2[nH]1)c1cc2ccccc2n1S(=O)(=O)c1ccccc1)c1ccccc1` (stereo not drawn), for which the TGI in the assay on DU-145 prostate, with HCT-15 colon, in the assay with K-562 leukemia, in the assay with NCI/ADR-RES ovarian, in the assay on RPMI-8226 leukemia and with SF-295 CNS was over 100 µM throughout. Further, the TGI in the assay on SK-MEL-5 melanoma, with SNB-75 CNS and in the assay on UACC-62 melanoma was over 100 µM throughout.
